# Measured values as given in article PMC11574045, “A cofactor-induced repressive type of transcription factor condensation can be induced by synthetic peptides to suppress tumorigenesis” (The EMBO Journal, 2024).
# System: HEK293FT cells transfected with TF library
# Assay: Screening of TF condensates based on fluorescent puncta
# Assay type: cell-based
# Conditions: Figure 1B numerical data; TF library screen, one value per transcriptional factor
# Protocol: TF plasmids were automatically added to black-walled 384-well plates at 80 ng per well to reach a final concentration of 1.6 μg/ml. Polyethylenimine (PEI, Sigma) was then added to the plasmid-loaded plates at 240 ng per well (4.8 μg/ml). Subsequently, HEK293FT cells were seeded into the plate at 2000 cells per well. After 60 h, cells were cultured in medium with or without glucose for 12 h, and then fixed with 4% paraformaldehyde (PFA) at room temperature for 30 min. After three washes with PBS, fixed cells were permeabilized with 0.05% Triton X-100 for 15 min. Thereafter, cells were blocked with 5% BSA for 1 h, and then incubated overnight with anti-Flag (Sigma F3165, 1:200) and anti-GAL4 (Abbkine ABP57232, 1:200) primary antibodies at 4 °C. The cells were then gently washed with PBS, followed by being incubated with Alexa Fluor Plus 488 goat anti-mouse IgG secondary antibody (Thermo A32723, 1:400) or Alexa Fluor Plus 488 goat anti-rabbit IgG secondary antibody (Thermo A32731, 1:400) for 1 h. The plates were kept at 4 °C in the dark before being analyzed using an Opera System (Perkin Elmer). Fifty random fields per well were scanned and analyzed using the Columbus Plus Image Data Storage and Analysis System (Perkin Elmer).
row,Substance,Z score of condensed fraction
1,SOX17,0.6231
2,ZNF626,2.964
3,ELK4,0.361
4,ZNF500,-0.7824
5,BHLHE22,1.286
6,ANKRD1,1.047
7,PRRX1,-0.08333
8,HOXA10,-0.1146
9,GSC2,-0.9708
10,ZNF320,0.5251
11,HOXA11,-0.6499
12,HDGF,2.149
13,HOX11L2/RNX,0.134
14,PAX2,-1.114
15,GATA3,-0.2833
16,EGR3,0.2174
17,SP8,-1.149
18,SOX11,1.034
19,LHX8,-0.6943
20,ZFP1,-1.01
21,FIGLA,0.3984
22,HOXB7,0.6165
23,CHD6,-1.082
24,ZNF548,1.7562
25,ZBTB8A,0.3848

row,Substance,Z score of condensed fraction
1,HOXC4,0.8193
2,DMRTB1,1.668
3,SOX21,-0.645
4,HOXB8,-0.6846
5,SPIB,-0.6455
6,PRDM2,-1.186
7,MYT1L,-0.407
8,NR5A1,-0.8082
9,LHX6,-0.2026
10,BACH2,2.257
11,MAD2,-0.8457
12,NFIA,0.5032
13,DOUBLESEX,-0.4806
14,ZBTB16,0.8279
15,NKX3-2,1.062
16,NH1H1,-0.5104
17,NFIB,0.509
18,TAL1,1.608
19,ZNF417,1.093
20,AP-2A,0.4428
21,HOXA3,-0.6169
22,TLX2,-0.3265
23,HOXC5,-0.4333
24,PAX9,-0.6994
25,ZFP37,-0.4393

row,Substance,Z score of condensed fraction
1,RHOA,2.893
2,EED,-1.11
3,PRDM1,-0.6129
4,GFI1B,-0.772
5,COPEB,-0.3064
6,VSX1,0.9653
7,ZNF689,-0.54
8,ZNF302,-1.141
9,KDM5D,0.3583
10,ZNF132,-0.5777
11,ZNF432,-0.5974
12,EPAS1,-0.6882
13,PRDM4,-0.7551
14,ZNF785,-0.4418
15,MAX,1.089
16,ZNF212,-0.4443
17,ZNF490,-0.9623
18,BMAL1,-0.6251
19,TGIF2,0.8605
20,FEV,-0.8157
21,PCBD2,-0.6918
22,ZNF562,1.118
23,NR2E1/TLX,-0.5566
24,ZDHHC17,0.6824
25,ZBTB14,-0.8092

row,Substance,Z score of condensed fraction
1,ZNF747,1.603
2,NRBF2,-0.07151
3,CTBP2,1.5
4,ZNF37A,-0.5462
5,ZNF175,-0.614
6,ZNF273,-0.8812
7,TULP4,-0.4703
8,ZNF680,-0.6442
9,VSX2,2.883
10,KLF13,-0.9454
11,RAX2,0.03236
12,ZNF670,2.5783
13,TAL2,1.36
14,DLX3,-0.9246
15,ZSCAN22,-0.5621
16,ZNF345,-1.14
17,PHOX2A,0.2668
18,HOXD4,-0.2008
19,ZFP238,-0.7406
20,SSX1,0.2068
21,GBX1,1.521
22,ZNF530,-0.1863
23,SP4,0.4803
24,DLX5,-0.5192
25,HOXB13,-0.5432

row,Substance,Z score of condensed fraction
1,ARNT2,-0.9281
2,ZNF404,-1.0199
3,RREB1,-1.018
4,NKX3-1,-0.7603
5,SOX14,0.5877
6,ZNF197,-0.8156
7,TAF11,-0.1333
8,ZNF22,-0.4323
9,MSX1,-0.7505
10,ZNF227,-1.039
11,ETS2,-0.1278
12,ZSCAN23,0.2133
13,ETV6,-0.2068
14,DLX6,-0.9336
15,LYL1,-0.8803
16,ZNF433,-0.2089
17,MAFG,0.65
18,NFIC,-0.8557
19,KLF7,1.062
20,SP1,-0.5886
21,ZNF572,-0.6768
22,KLF9,-0.8423
23,ZNF540,-0.9698
24,NEUROD6,1.486
25,ZNF529,-0.8409

row,Substance,Z score of condensed fraction
1,ST18,-0.7086
2,ZFP161,-0.4432
3,KLF16,-0.8935
4,ZNF679,-1.052
5,HMGN3,1.967
6,PITX1,0.6327
7,ZNF136,-0.8979
8,ELF1,3.027
9,ZNF695,-0.08978
10,SOX5,-1.09
11,ZNF496,0.02283
12,PBRM1,-1.101
13,ZSCAN2,-0.2191
14,SUPT3H,2.5076
15,ZNF77,-1.086
16,BIRC3,-0.652
17,PITX3,1.221
18,ZNF254,0.4246
19,ZNF257,0.03056
20,ZNF10,-0.8346
21,HOXA6,1.681
22,ZNF643,2.053
23,ZNF454,-0.2763
24,COPS5,-0.1538
25,ZNF221,-0.687

row,Substance,Z score of condensed fraction
1,HOXC9,-0.7207
2,GFI1,-0.2635
3,ZNF829,0.6314
4,EGR2,-0.8859
5,ZFP263,2.5993
6,HOXD11,-0.6245
7,CSDA,-0.8745
8,GLI2,-0.605
9,ARX,-0.4034
10,PNRC2,0.4868
11,TFAP2E,1.779
12,SOX15,0.259
13,MTF1,0.05882
14,MECOM,-0.8438
15,KDM5C,0.549
16,HOXC11,-0.01391
17,ZNF596,-0.5741
18,PHF19,-0.6582
19,EHF,-0.3879
20,TFAP2C,1.42
21,ZNF707,0.9339
22,ZNF329,-0.4972
23,BTEB1,-0.01224
24,PSMC3,1.134
25,ELK3,0.04681

row,Substance,Z score of condensed fraction
1,ZNF517,-0.6071
2,KLF15,0.8588
3,ZNF768,-0.6686
4,PDX1,-0.1162
5,ZNF133,-0.4329
6,ZNF587,0.9024
7,CREB1,-0.9562
8,ZNF223,0.1367
9,PHOX2B,-1.179
10,PAX6,-0.2168
11,WIZ,-0.9233
12,HOXD1,-0.8333
13,HOXA9,-1.01
14,MIXL1,-0.6564
15,ZNF267,2.62
16,CFOS,0.6801
17,DYRK1B,-0.5775
18,ZNF556,-0.2629
19,HOXA1,-0.1685
20,HOXC10,-0.2628
21,MEOX1,-0.5142
